Article PMC6120236 (FEBS Open Bio, 2018)
Read-outs that look alike come from different tables or passages of the source.

Experiments:
[1] = biological target: T1, WT ITK (His6-tagged human wild-type ITK kinase domain) (Homo sapiens, UniProt Q08881); experiment: ADP-Glo kinase assay; format: biochemical
T1 construct: Ni-NTA, Q Sepharose, Superdex 200
T1 sequence (Q08881 357-620 limits assumed): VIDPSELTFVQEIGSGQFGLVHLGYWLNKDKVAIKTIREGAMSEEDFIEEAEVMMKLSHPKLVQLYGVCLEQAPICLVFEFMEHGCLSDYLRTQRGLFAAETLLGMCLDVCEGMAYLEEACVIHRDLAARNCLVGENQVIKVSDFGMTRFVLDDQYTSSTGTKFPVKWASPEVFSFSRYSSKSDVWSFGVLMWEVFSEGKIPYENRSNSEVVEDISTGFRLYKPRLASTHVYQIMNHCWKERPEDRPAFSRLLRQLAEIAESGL
Text: ADP-Glo kinase assay on WT ITK (His6-tagged human wild-type ITK kinase domain)

[2] = biological target: T1, WT ITK (His6-tagged human wild-type ITK kinase domain); experiment: SPR (Biacore, NTA capture coupling); format: binding
[3] = biological target: T1, WT ITK (His6-tagged human wild-type ITK kinase domain); experiment: biochemical kinase inhibition assay
[4] = biological target: CLK1 (Homo sapiens, UniProt P49759); experiment: DiscoveRx KINOMEscan; conditions: read-out: Percentage of control binding / J-31
Text: DiscoveRx KINOMEscan on CLK1

[5] = biological target: LCK (Homo sapiens, UniProt P06239); experiment: DiscoveRx KINOMEscan; conditions: read-out: Percentage of control binding / J-95
Text: DiscoveRx KINOMEscan on LCK

[6] = biological target: HCK (Homo sapiens, UniProt P08631); experiment: DiscoveRx KINOMEscan; conditions: read-out: Percentage of control binding / J-95
Text: DiscoveRx KINOMEscan on HCK

Sequence of LCK (P06239 2-509): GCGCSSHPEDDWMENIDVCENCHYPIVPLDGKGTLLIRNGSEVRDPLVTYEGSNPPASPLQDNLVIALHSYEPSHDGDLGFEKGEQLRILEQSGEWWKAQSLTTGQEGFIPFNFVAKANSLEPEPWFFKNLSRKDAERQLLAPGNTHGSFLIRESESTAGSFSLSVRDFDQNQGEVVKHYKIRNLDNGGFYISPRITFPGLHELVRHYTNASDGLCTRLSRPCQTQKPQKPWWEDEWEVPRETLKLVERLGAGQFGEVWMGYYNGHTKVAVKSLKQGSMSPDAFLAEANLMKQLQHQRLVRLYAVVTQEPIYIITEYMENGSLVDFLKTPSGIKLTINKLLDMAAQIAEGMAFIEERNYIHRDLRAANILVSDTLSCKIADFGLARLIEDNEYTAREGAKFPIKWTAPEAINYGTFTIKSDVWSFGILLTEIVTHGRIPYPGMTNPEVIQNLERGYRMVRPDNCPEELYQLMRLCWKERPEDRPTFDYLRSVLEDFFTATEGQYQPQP
Sequence of CLK1 (P49759 whole entry): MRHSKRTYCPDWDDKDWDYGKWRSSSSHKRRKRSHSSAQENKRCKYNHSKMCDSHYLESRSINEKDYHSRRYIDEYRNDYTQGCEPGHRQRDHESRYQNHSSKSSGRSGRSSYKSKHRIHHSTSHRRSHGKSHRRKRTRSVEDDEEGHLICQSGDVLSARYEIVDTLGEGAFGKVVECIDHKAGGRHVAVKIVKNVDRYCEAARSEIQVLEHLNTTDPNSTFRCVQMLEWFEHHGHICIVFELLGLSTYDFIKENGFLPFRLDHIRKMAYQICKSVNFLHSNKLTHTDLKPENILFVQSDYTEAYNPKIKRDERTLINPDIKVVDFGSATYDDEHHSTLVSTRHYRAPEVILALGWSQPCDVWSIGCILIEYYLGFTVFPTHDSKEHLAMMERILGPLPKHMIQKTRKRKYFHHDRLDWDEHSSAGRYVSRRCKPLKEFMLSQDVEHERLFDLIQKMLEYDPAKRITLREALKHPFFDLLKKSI
Sequence of HCK (P08631 2-526): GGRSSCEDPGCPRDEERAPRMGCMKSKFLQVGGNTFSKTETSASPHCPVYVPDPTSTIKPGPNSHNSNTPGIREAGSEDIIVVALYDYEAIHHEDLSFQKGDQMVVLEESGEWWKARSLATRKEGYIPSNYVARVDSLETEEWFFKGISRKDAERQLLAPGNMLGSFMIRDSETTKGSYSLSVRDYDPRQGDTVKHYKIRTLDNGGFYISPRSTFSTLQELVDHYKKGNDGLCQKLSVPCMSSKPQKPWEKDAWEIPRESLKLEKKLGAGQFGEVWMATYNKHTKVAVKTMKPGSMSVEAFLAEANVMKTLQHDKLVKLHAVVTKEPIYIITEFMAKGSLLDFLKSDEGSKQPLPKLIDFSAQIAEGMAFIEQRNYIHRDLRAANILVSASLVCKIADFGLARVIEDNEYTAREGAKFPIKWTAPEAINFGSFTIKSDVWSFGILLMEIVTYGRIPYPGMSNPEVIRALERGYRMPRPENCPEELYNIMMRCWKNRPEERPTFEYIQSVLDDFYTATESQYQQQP

Row | Compound | IC50 [1] [nM] | Kd ([2]; read-out: K D) [nM] | also measured
1 | CCc1ccc2nc(Nc3cc(Cc4ccccc4)nc(N[C@H]4CC[C@H](O)CC4)n3)sc2c1 [G, GSK compound 13] | 3.5 | 3.6 | 
2 | CC(C)Oc1ccc2cccc(-n3cc(NC(N)=O)c(C(N)=O)n3)c2c1 [C, Pfizer compound 9] | 24 | 25 | 
3 | COc1ccc(OCCn2c(NC(=O)c3ccco3)nc3ccccc32)cc1 [J-31] |  |  | IC50 [3]: 5500 nM; Kd [2]: 3400 nM; remaining binding at 50 µM [4]: 21%
4 | CCOC(=O)/C=C1\CC(=O)Nc2cc(C)c(C)cc2N1 [J-95] |  |  | IC50 [3]: 3300 nM; Kd [2]: 1000 nM; remaining binding at 20 µM [5]: 29%; remaining binding at 20 µM [6]: 33%
5 | CC(=O)N1CCCC(n2nc(-c3cccc(C(=O)Nc4ccc(C(C)C)cc4)c3)c3c(N)ncnc32)C1 (centres unmarked) [E, Derivative of D] | 460 | 1100 | 
6 | COc1cc(C)c(Sc2cnc(NC(C)=O)s2)cc1C(=O)N1CCN(C(C)=O)CC1 [B, Derivative of A] | 260 | 75 | 
7 | COc1cc(C)c(Sc2cnc(NC(=O)c3ccc(CNC(C)C(C)(C)C)cc3)s2)cc1C(=O)N1CCN(C(C)=O)CC1 (centres unmarked) [A, BMS-509744] | 2.5 | 1.3 | 
